Assay results reported in PubChem BioAssay AID1963982 (Molecular Pharmacology Branch, DTP, NCI, 2024).
Each block holds one molecule with its values, some of them ahead of it.

System: 313798-341-R-J2-PDC spheroids, viability
Assay: Anticancer human tumor 313798-341-R-J2-PDC patient-derived cervical squamous cell carcinoma cell line growth inhibition [PI3K]
Conditions: spheroids with HUVEC and MSC; for IC50: curve of first compound; for viability, T/C: stronger effect = lower value
In short: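 Three cell types, namely tumor cells, endothelial cells and mesenchymal stem cells, formed each spheroid. Combinations with four PI3K inhibitors were screened at clinically achievable concentrations decreasing by half-log, and spheroid viability was recorded.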

[1] = second compound 0.0316 µM, first compound 0.0316 µM
[2] = second compound 0.0316 µM, first compound 0.1 µM
[3] = second compound 0.1 µM, first compound 0.0316 µM
[4] = second compound 0.1 µM, first compound 0.1 µM
[5] = second compound 0.316 µM, first compound 0.0316 µM
[6] = second compound 0.316 µM, first compound 0.1 µM
[7] = second compound 1 µM, first compound 0.0316 µM
[8] = second compound 1 µM, first compound 0.1 µM
[9] = second compound 3.16 µM, first compound 0.0316 µM
[10] = second compound 3.16 µM, first compound 0.1 µM
[11] = second compound 10 µM, first compound 0.0316 µM
[12] = second compound 10 µM, first compound 0.1 µM
[13] = second compound 0.0316 µM, first compound 0.316 µM
[14] = second compound 0.0316 µM, first compound 1 µM
[15] = second compound 0.0316 µM, first compound 3.16 µM
[16] = second compound 0.0316 µM, first compound 10 µM
[17] = second compound 0.1 µM, first compound 0.316 µM
[18] = second compound 0.1 µM, first compound 1 µM
[19] = second compound 0.1 µM, first compound 3.16 µM
[20] = second compound 0.1 µM, first compound 10 µM
[21] = second compound 0.316 µM, first compound 0.316 µM
[22] = second compound 0.316 µM, first compound 1 µM
[23] = second compound 0.316 µM, first compound 3.16 µM
[24] = second compound 0.316 µM, first compound 10 µM
[25] = second compound 1 µM, first compound 0.316 µM
[26] = second compound 1 µM, first compound 1 µM
[27] = second compound 1 µM, first compound 3.16 µM
[28] = second compound 1 µM, first compound 10 µM
[29] = second compound 3.16 µM, first compound 0.316 µM
[30] = second compound 3.16 µM, first compound 1 µM
[31] = second compound 3.16 µM, first compound 3.16 µM
[32] = second compound 3.16 µM, first compound 10 µM
[33] = second compound 10 µM, first compound 0.316 µM
[34] = second compound 10 µM, first compound 1 µM
[35] = second compound 10 µM, first compound 3.16 µM
[36] = second compound 10 µM, first compound 10 µM
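Note: spheroids exposed to compounds for seven days.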
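Throughout, for viability, T/C: 100% = DMSO vehicle control viability.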

- IC50 (second compound 0.0316 µM): 0.0588 µM
- IC50 (second compound 0.1 µM): 0.0647 µM
- IC50 (second compound 0.316 µM): 0.0651 µM
- IC50 (second compound 1 µM): 0.05 µM
- IC50 (second compound 3.16 µM): 0.0555 µM
- IC50 (second compound 10 µM): 0.0254 µM
Structure (SMILES): CC(C)n1nc(-c2ccc3oc(N)nc3c2)c2c(N)ncnc21 + CC(Nc1ncnc2nc[nH]c12)c1cc2cccc(Cl)c2c(=O)n1-c1ccccc1
- viability, T/C (second compound 0.0316 µM, first compound 0.000316 µM): 102%
- viability, T/C (second compound 0.0316 µM, first compound 0.001 µM): 96.8%
- viability, T/C (second compound 0.0316 µM, first compound 0.00316 µM): 108%
- viability, T/C (second compound 0.0316 µM, first compound 0.01 µM): 96.5%
- viability, T/C [1]: 65.7%
- viability, T/C [2]: 36.6%
- viability, T/C (second compound 0.1 µM, first compound 0.000316 µM): 109%
- viability, T/C (second compound 0.1 µM, first compound 0.001 µM): 92.9%
- viability, T/C (second compound 0.1 µM, first compound 0.00316 µM): 97%
- viability, T/C (second compound 0.1 µM, first compound 0.01 µM): 101%
- viability, T/C [3]: 67.9%
- viability, T/C [4]: 39.1%
- viability, T/C (second compound 0.316 µM, first compound 0.000316 µM): 101%
- viability, T/C (second compound 0.316 µM, first compound 0.001 µM): 94.2%
- viability, T/C (second compound 0.316 µM, first compound 0.00316 µM): 100%
- viability, T/C (second compound 0.316 µM, first compound 0.01 µM): 97.4%
- viability, T/C [5]: 66.4%
- viability, T/C [6]: 40.2%
- viability, T/C (second compound 1 µM, first compound 0.000316 µM): 100%
- viability, T/C (second compound 1 µM, first compound 0.001 µM): 91.5%
- viability, T/C (second compound 1 µM, first compound 0.00316 µM): 99.8%
- viability, T/C (second compound 1 µM, first compound 0.01 µM): 89.7%
- viability, T/C [7]: 58.8%
- viability, T/C [8]: 36.8%
- viability, T/C (second compound 3.16 µM, first compound 0.000316 µM): 117%
- viability, T/C (second compound 3.16 µM, first compound 0.001 µM): 94.2%
- viability, T/C (second compound 3.16 µM, first compound 0.00316 µM): 93.7%
- viability, T/C (second compound 3.16 µM, first compound 0.01 µM): 82.2%
- viability, T/C [9]: 55.5%
- viability, T/C [10]: 40.6%
- viability, T/C (second compound 10 µM, first compound 0.000316 µM): 87.6%
- viability, T/C (second compound 10 µM, first compound 0.001 µM): 91.9%
- viability, T/C (second compound 10 µM, first compound 0.00316 µM): 78.5%
- viability, T/C (second compound 10 µM, first compound 0.01 µM): 57.1%
- viability, T/C [11]: 51.9%
- viability, T/C [12]: 27.1%

- IC50 (second compound 0.0316 µM): 5.81 µM
- IC50 (second compound 0.1 µM): 5.8 µM
- IC50 (second compound 0.316 µM): 5.32 µM
- IC50 (second compound 1 µM): 4.22 µM
- IC50 (second compound 3.16 µM): 1.71 µM
- IC50 (second compound 10 µM): < 0.0316 µM
Structure (SMILES): CC1(C)CCC(CN2CCN(c3ccc(C(=O)NS(=O)(=O)c4ccc(NCC5CCOCC5)c([N+](=O)[O-])c4)c(Oc4cnc5[nH]ccc5c4)c3)CC2)=C(c2ccc(Cl)cc2)C1 + Cc1nc(NC(=O)N2CCCC2C(N)=O)sc1-c1ccnc(C(C)(C)C(F)(F)F)c1
- viability, T/C [1]: 102%
- viability, T/C [2]: 115%
- viability, T/C [13]: 104%
- viability, T/C [14]: 101%
- viability, T/C [15]: 84.4%
- viability, T/C [16]: 19.3%
- viability, T/C [3]: 115%
- viability, T/C [4]: 101%
- viability, T/C [17]: 110%
- viability, T/C [18]: 97.9%
- viability, T/C [19]: 85%
- viability, T/C [20]: 19.8%
- viability, T/C [5]: 111%
- viability, T/C [6]: 103%
- viability, T/C [21]: 112%
- viability, T/C [22]: 107%
- viability, T/C [23]: 75.7%
- viability, T/C [24]: 18.7%
- viability, T/C [7]: 91.5%
- viability, T/C [8]: 104%
- viability, T/C [25]: 97.2%
- viability, T/C [26]: 90.7%
- viability, T/C [27]: 60.8%
- viability, T/C [28]: 17.9%
- viability, T/C [9]: 69.3%
- viability, T/C [10]: 66.7%
- viability, T/C [29]: 63.9%
- viability, T/C [30]: 59.3%
- viability, T/C [31]: 40.2%
- viability, T/C [32]: 18.3%
- viability, T/C [11]: 38.6%
- viability, T/C [12]: 34.1%
- viability, T/C [33]: 38.1%
- viability, T/C [34]: 35.7%
- viability, T/C [35]: 33%
- viability, T/C [36]: 15.1%

- IC50 (second compound 0.0316 µM): > 10 µM
- IC50 (second compound 0.1 µM): > 10 µM
- IC50 (second compound 0.316 µM): > 10 µM
- IC50 (second compound 1 µM): > 10 µM
- IC50 (second compound 3.16 µM): > 10 µM
- IC50 (second compound 10 µM): < 0.0316 µM
Structure (SMILES): CNC(=O)c1ccc(N2C(=S)N(c3ccc(C#N)c(C(F)(F)F)c3)C(=O)C2(C)C)cc1F + Cc1nc(NC(=O)N2CCCC2C(N)=O)sc1-c1ccnc(C(C)(C)C(F)(F)F)c1
- viability, T/C [1]: 97.5%
- viability, T/C [2]: 104%
- viability, T/C [13]: 92.3%
- viability, T/C [14]: 107%
- viability, T/C [15]: 119%
- viability, T/C [16]: 88.4%
- viability, T/C [3]: 116%
- viability, T/C [4]: 101%
- viability, T/C [17]: 99.5%
- viability, T/C [18]: 105%
- viability, T/C [19]: 111%
- viability, T/C [20]: 114%
- viability, T/C [5]: 104%
- viability, T/C [6]: 104%
- viability, T/C [21]: 107%
- viability, T/C [22]: 102%
- viability, T/C [23]: 117%
- viability, T/C [24]: 111%
- viability, T/C [7]: 94.3%
- viability, T/C [8]: 89.4%
- viability, T/C [25]: 96.2%
- viability, T/C [26]: 96%
- viability, T/C [27]: 90.3%
- viability, T/C [28]: 90.4%
- viability, T/C [9]: 67.4%
- viability, T/C [10]: 64.7%
- viability, T/C [29]: 65.9%
- viability, T/C [30]: 64.9%
- viability, T/C [31]: 61.5%
- viability, T/C [32]: 54.5%
- viability, T/C [11]: 36%
- viability, T/C [12]: 39.3%
- viability, T/C [33]: 38.5%
- viability, T/C [34]: 36.8%
- viability, T/C [35]: 35.5%
- viability, T/C [36]: 33%
